Laboratory results from patent US20080286282A1, “Novel Use of Sulfonamide Compound in Combination with Angiogenesis Inhibitor” (Eisai R & D Management Co., Ltd., priority 2005, published 2008).
Read-outs that look alike come from different tables or passages of the source.

Columns and labels:
[1] = tested on: HCT116-C9-C1; experiment: Cell growth inhibition assay (MTT, 72 h) on E7070-resistant HCT116-C9-C1; assay type: cell-based; details: Homo sapiens
Procedure: (§1) An E7070-resistant cell line was used to assess the antiproliferative activities of E7820, LY186641, LY295501, LY-ASAP and CQS. HCT116-C9 was a substrain separated from human colon cancer-derived HCT116 (American Type Culture Collection, Manassas, Va., U.S.A.). This HCT116-C9 was cultured in the presence of E7070 while increasing the E7070 concentration by degrees, thereby obtaining E7070-resistant substrains HCT116-C9-C1 and HCT116-C9-C4 (Molecular Cancer Therapeutics, 2002, 1, 275-286).
(§2) Three cell lines, i.e., HCT116-C9, HCT116-C9-C1 and HCT116-C9-C4, were each seeded at 3000 cells/well onto a 96-well microplate (flat bottom) (50 μl/well). Twenty-four hours later, they were added with a 3-fold dilution series of each compound (50 μl/well). Seventy-two hours later, the antiproliferative activities were assessed by MTT method (Mossmann T., J. Immunol. Methods, 1983, 65, 55-63). The 50% growth inhibitory concentrations to the cancer cells were obtained by a least square method.
(§3) In exactly the same manner as in Example 6, an E7070-resistant cell line was used to assess the antiproliferative activities of LY573636 as well as those of E7070.

[2] = tested on: HCT116-C9-C4; experiment: Cell growth inhibition assay (MTT, 72 h) on E7070-resistant HCT116-C9-C4; assay type: cell-based; details: Homo sapiens
Procedure: as §1, §2, §3

[3] = tested on: HCT116-C9; experiment: Cell growth inhibition assay (MTT, 72 h) on HCT116-C9; assay type: cell-based; details: Homo sapiens
Procedure: as §1, §2, §3

[4] = tested on: human colon cancer cell line (Colo320DM); experiment: Subcutaneous transplant model of human colon cancer cell line Colo320DM, E7070 and Bevacizumab (Example 8); assay type: in vivo; details: Colo320DM s.c. in nude mouse, E7070 40 mg/kg i.v. Days 1 to 5, Bevacizumab 25 mg/kg i.v. Days 1, 5, 8 and 12; for Relative Tumor Volume (RTV) Average ± standard deviation: Day 23
Procedure: (§4) Human colon cancer cell line Colo320DM (purchased from ATCC) was cultured in RPMI1640 (containing 10% FBS) in a 5% carbon dioxide incubator to about 80% confluence, and the cells were collected with trypsin-EDTA. Using Hanks balanced solution, 5×10^7 cells/mL suspension was prepared, and 0.1 mL each of the resulting cell suspension was subcutaneously transplanted to a nude mouse at the side of its body.
Following transplantation, E7070 (40 mg/kg/day) and Bevacizumab (25 mg/kg/day) were administered alone or in combination when the average tumor volume became 259 mm^3.
E7070 alone was intravenously administered once a day for 5 days (on Days 1 to 5). On the other hand, Bevacizumab alone was intravenously administered twice a week for 2 weeks (on Days 1, 5, 8 and 12).
For the combinational use group, E7070 was intravenously administered on Days 1 to 5 while Bevacizumab was intravenously administered on Days 1, 5, 8 and 12.
The major and minor axes of tumors were measured twice a week from the initiation of administration with Digimatic caliper (Mitsutoyo), and tumor volumes were calculated according to the following formula.
(§5) Tumor Volume TV=Major axis of tumor (mm)×(Minor axis of tumor)^2 (mm^2)/2
The following two values were used for judging an anti-tumor effect.
Tx4: time (days) required for the tumor to grow to four times the initial tumor volume
RTV: Relative tumor volume (RTV)* on Day 23
*RTV=Tumor volume on Day 23/Initial tumor volume on Day 1

[5] = tested on: human colon cancer cell line (Colo320DM); experiment: Subcutaneous transplant model of human colon cancer cell line Colo320DM, E7820 and Bevacizumab (Example 2); assay type: in vivo; details: Colo320DM s.c. in nude mouse; E7820 200 mg/kg twice a day orally 3 weeks; Bevacizumab 25 mg/kg twice a week i.v. 3 weeks
Procedure: Human colon cancer cell line Colo320DM (purchased from Dainippon Pharmaceutical) was cultured in RPMI1640 (containing 10% FBS) in a 5% carbon dioxide incubator at 37° C. to about 80% confluence, and the cells were collected with trypsin-EDTA. Using a phosphate buffer containing 50% matrigel, 5×10^7 cells/mL suspension was prepared, and 0.1 mL each of the resulting cell suspension was subcutaneously transplanted to a nude mouse at the side of its body. Seven days after the transplantation, administration of E7820 (200 mg/kg, twice a day, for 3 weeks, orally administered) and administration of Bevacizumab (25 mg/kg, twice a week, for 3 weeks, intravenously administered) were initiated. The major and minor axes of tumors were measured with Digimatic caliper (Mitsutoyo), and tumor volumes and relative tumor volumes were calculated according to the following formulae.
as §5
(§6) Relative Tumor Volume RTV=Tumor volume on measurement day/Tumor volume on the first administration day

[6] = tested on: human renal cancer cell line (786-O); experiment: Subcutaneous transplant model of human renal cancer cell line 786-O, E7820 and Bevacizumab (Example 9); assay type: in vivo; details: 786-O s.c. in nude mouse; E7820 200 mg/kg twice a day orally 2 weeks; Bevacizumab 25 mg/kg twice a week i.v. 2 weeks
Procedure: as §4, with “renal” for “colon”, “786-0 (obtained” for “Colo320DM (purchased”, “incubator at 37° C.” for “incubator”, “a phosphate buffer containing 50% matrigel, 1×10^8” for “Hanks balanced solution, 5×10^7”
Seven days after the transplantation, E7820 and Bevacizumab were administered alone or in combination. E7820 was orally administered at 200 mg/kg twice a day for 2 weeks while Bevacizumab was intravenously administered at 25 mg/kg twice a week for 2 weeks.
The major and minor axes of tumors were measured with Digimatic caliper (Mitsutoyo), and tumor volumes and relative tumor volumes were calculated according to the following formulae.
as §5, §6

[7] = Example 6, read-out: antiproliferative activity, IC50
[8] = Example 7, read-out: antiproliferative activity, IC50

Row | IC50 [1, 7] | IC50 [2, 7] | IC50 [3, 7] | IC50 [1, 8] | IC50 [2, 8] | IC50 [3, 8] | Molecule | Tx4 Average ± standard deviation (time required for the tumor to grow to four times the initial tumor volume) [4] | Relative Tumor Volume (RTV) Average ± standard deviation [4] | Relative tumor volume on Day 22 Average ± standard deviation [5] | Relative tumor volume on Day 22 Average ± standard deviation [6]
1 | 634 µM | 517 µM | 1.73 µM |  |  |  | Nc1ccc(S(=O)(=O)Nc2cnc3c(Cl)cccc3n2)cc1 [CQS, 2-sulfanylamide-5-chloroquinoxaline] |  |  |  | 
2 | 31.9 µM | 26.9 µM | 0.127 µM | 32.7 µM | 28 µM |  | NS(=O)(=O)c1ccc(S(=O)(=O)Nc2cccc3c(Cl)c[nH]c23)cc1 [E7070, N-(3-chloro-1H-indole-7-yl)-4-sulfamoylbenzenesulfonamide] | 27.0 ± 3.4 days | 2.70 ± 0.97 |  | 
3 | 51.2 µM | 52.8 µM | 0.08 µM |  |  |  | Cc1ccc(NS(=O)(=O)c2cccc(C#N)c2)c2[nH]cc(C#N)c12 [E7820, N-(3-cyano-4-methyl-1H-indole-7-yl)-3-cyanobenzenesulfonamide] |  |  | 6.1 ± 1.8 | 0.6 ± 0.1
4 | 134 µM | 138 µM | 33.6 µM |  |  |  | O=C(Nc1ccc(Cl)cc1)NS(=O)(=O)c1ccc2c(c1)CCC2 [LY186641, N-[[(4-chlorophenyl)amino]carbonyl]-2,3-dihydro-1H-indene-5-sulfonamide] |  |  |  | 
5 | 111 µM | 110 µM | 10.9 µM |  |  |  | O=C(Nc1ccc(Cl)c(Cl)c1)NS(=O)(=O)c1ccc2c(c1)CCO2 [LY295501, N-[[(3,4-dichlorophenyl)amino]carbonyl]-2,3-dihydrobenzofuran-5-sulfonamide] |  |  |  | 
6 |  |  |  | 264 µM | 240 µM | 5.11 µM | O=C(NS(=O)(=O)c1ccc(Br)s1)c1ccc(Cl)cc1Cl [LY573636, N-(2,4-dichlorobenzoyl)-5-bromothiophene-2-sulfonamide] |  |  |  | 
7 | 113 µM | 90.3 µM | 1.63 µM |  |  |  | O=C(NS(=O)(=O)c1ccc(Cl)cc1)c1ccc(Cl)cc1Cl [LY-ASAP, N-(2,4-dichlorobenzoyl)-4-chlorophenylsulfonamide] |  |  |  | 
8 |  |  |  |  |  |  | Bevacizumab: human anti-VEGF (Vascular Endothelial Growth Factor) monoclonal antibody, obtained by purchasing Avastin from Genentech | 26.3 ± 2.8 days | 2.84 ± 0.68 | 5.1 ± 0.8 | 1.8 ± 0.2
